Test results taken from patent US20010005511A1, “Insect control by insect growth regulators broadcast by volatilization” (Wellmark International, priority 1999, published 2001).
Values joined by “and” are separate entries in the source; they are usually repeats but may differ in a detail not shown here. Identical values can stand only once. Like-named read-outs stand apart in the source and are kept apart here.

Key:
fleas [1] = experiment: Flea control on carpet circles by S-methoprene volatilized by a plug-in heater; type: in vivo, Ctenocephalides felis; settings: for Adult Flea Emergence (From 100 Eggs), Individual Tests: 0.1 g, room 78.4 m^3, activation time 4 h, three carpet circles; for Emax: Ctenocephalides felis
Description: This example illustrates the efficacy of S-methoprene volatilized by a plug-in heater designed for use with mosquito repellents. The heater was an AgRevo heater, 110-120v, 50-60 Hz, 5 watts, purchased from DBK Espana Household Technologies, and the tests were performed in the same test room used for Example 1, adjusted to a floor area of 18.6 m^2 (200 ft^2), resulting in a room volume of 78.4 m^3 (2,800 ft^3). The S-methoprene was placed in the heater by wetting a Whatman filter pad consisting of 50% cellulose and 50% glass fiber, the wetting solution consisting of 8.8% (by weight) S-methoprene in neat 1-methoxy 2-propanol. The amount of solution used was 1.2 g, resulting in 0.1 g of S-methoprene in the pad. Carpet circles were used as in the preceding examples, and all other procedures were the same as those in Example 1. Carpet circles were placed at distances of 0.61 m (2 ft), 3.0 m (10 ft), and 6.1 m (20 ft) from the plug-in-heater, with three carpet circles at each location. Three additional carpet circles were retained outside the room to avoid exposure to the volatilized S-methoprene for use as controls. The activation time for the test circles was four hours. Efficacy was determined by comparing the results from the test circles to those from the control circles.

fleas [2] = experiment: Residual flea control on carpet circles by S-methoprene volatilized from a 60-watt light bulb in a residential living room; type: in vivo, Ctenocephalides felis; settings: for Number of Adult Fleas Emerging From 100 Eggs, individual test samples: 0.1 g (Solution B), 4 h exposure, 6.1 m from bulb, samples 1-6; for Percent Control (Arithmetic) / Percent Control (Geometric): relative to control samples
Description: This example is a further illustration of the efficacy of S-methoprene volatilized by heating from an incandescent light bulb in the control of fleas. The test was performed in a conventional residential living room with a floor area of 21.5 m^2 (231 ft^2). A single standard 60-watt incandescent bulb was used as the heat source, with a felt ring containing 0.1 g of S-methoprene (using Solution B of Example 1). The temperature of the bulb surface at the location of the felt ring was approximately 200° F. (93° C.). The exposure time (the length of time that the lamp containing the bulb was turned on) was four hours. The carpet circles were placed twenty feet (6.1 m) from the bulb.
After exposure to the volatilized S-methoprene, the carpet circles were each aged (allowed to rest without additional exposure) for 1, 2, 3, or 4 months. They were then challenged by infestation with flea eggs in the same manner as described above in Example 1. The results, expressed in terms of the number of adult fleas emerging after 35 days, are listed in Table II, together with corresponding results from control samples.

[3] = tested on: fleas (Ctenocephalides felis); experiment: Flea control on carpet circles by S-methoprene volatilized from a 100-watt light bulb in a test room; type: in vivo; settings: for Efficacy at Indicated Distance from Source, 35-Day Residual Effect: carpet rested 35 days before infestation
Description: This example illustrates the efficacy of S-methoprene volatilized by heating from an incandescent light bulb in the control of fleas (Ctenocephalides felis).
Testing was performed in a test room measuring 8.5 m (28 ft.) (length)×6.1 m (20 ft) (width)×4.3 m (14 ft.) (height) with a movable partition to reduce the room to the desired size. For this series of tests, the partition was placed in various positions such that the horizontal area of the room was variously:
A single standard 100-watt incandescent light bulb was used as the heating source, and a felt ring that was cut to fit on the top of the light bulb was used as the support for the liquid S-methoprene solution. Three liquid S-methoprene solutions were used as follows:
Solution A: S-methoprene and IRGANOX® L57 (in a weight ratio of 50:1), to achieve a solution of […] S-methoprene by weight. IRGANOX ® L57 (Ciba-Geigy Corp., Hawthorne, N.Y., USA) is a liquid aminic antioxidant in the form of an alkylated diphenylamine. No solvents were used.
Solution B: S-methoprene and BHT (in a weight ratio of 50:1), dissolved in a mixture of 1-methoxy-2-propanol and deionized water (in a weight ratio of 84:16) to achieve a solution of 5.2% S-methoprene by weight.
Solution C: S-methoprene and BHT (in a weight ratio of 50:1), dissolved in a mixture of 1-methoxy-2-propanol and Belmay B-5 Fragrance (in a weight ratio of 44:56) to achieve a solution of 5% S-methoprene by weight.
As the infested target, circular pieces of carpet were used. Each piece was 7.6 cm (3 inches) in diameter cut from a 1.3-cm (0.5-inch) pile nylon carpet, and individual circles were placed at distances of 0.61 m (2 ft), 3.0 m (10 ft), and 6.1 m (20 ft) from the light bulb.
The felt ring in each experiment was wetted with 2 g of solution. […] The bulb was turned on for periods of time ranging from 4 h to 120 h. This is referred to below as the “Activation Time.” The temperature of the bulb surface at the location of the felt ring was approximately 215° F. (102° C.). In some of the tests, a horizontal barrier was placed above the carpet circles at distances of 5.1 cm (2 inches) or 7.6 cm (3 inches), to simulate penetration of the S-methoprene to difficult-to-reach places such as under furniture. The carpet circles were placed in two positions below the barrier—one in which the center of the carpet circle was 30 cm (12 inches) from the edge of the barrier (identified below as “Position 1”), and the other in which the center of the carpet circle was 7.6 cm (3 inches) from the edge of the barrier (identified below as “Position 2”).
After these exposures, the carpet circles were removed from the room, and sprinkled with flea rearing media and infested with 100 viable flea eggs. Similar carpet circles that had not undergone exposure to the volatilized S-methoprene were similarly sprinkled and infested. The exposed (test) and unexposed (control) carpet circles were then placed in a warm (27° C., 80° F.), high humidity (80% relative humidity) room for 35 days to allow any viable flea eggs in the circles to develop to adult fleas. In some of the tests, the carpet circles were allowed to rest for 35 days after removal from the treatment room before being infested with the flea eggs, to test for residual efficacy. In all cases, efficacy was determined by comparing the results from test circles to those from the control circles.

[4] = 0.1 g, room 78.4 m^3, activation time 4 h, carpet centre 7.6 cm from barrier edge, 3.0 m
[5] = 0.1 g, room 78.4 m^3, activation time 4 h, carpet centre 30 cm from barrier edge, 3.0 m

COC(C)(C)CCC[C@H](C)C/C=C/C(C)=C/C(=O)OC(C)C [S-methoprene, (E,E)-(7S)-11-methoxy-3,7,11-trimethyldodeca-2,4-dienoate, isopropyl ester]
Adult Flea Emergence (From 100 Eggs), Average (fleas [1]; 0.61 m from heater): 1 | Adult Flea Emergence (From 100 Eggs), Individual Tests (fleas [1]; 0.61 m from heater): 0/1/2 | Adult Flea Emergence (From 100 Eggs), Average (fleas [1]; 3.0 m from heater): 0.3 | Adult Flea Emergence (From 100 Eggs), Individual Tests (fleas [1]; 3.0 m from heater): 1/0/0 | Adult Flea Emergence (From 100 Eggs), Average (fleas [1]; 6.1 m from heater): 0.3 | Adult Flea Emergence (From 100 Eggs), Individual Tests (fleas [1]; 6.1 m from heater): 1/0/0 | Emax (fleas [1]; 0.61 m from heater, read-out: % Efficacy (Relative to Control)): 92.7% | Emax (fleas [1]; 3.0 m from heater, read-out: % Efficacy (Relative to Control)): 97.8% | Emax (fleas [1]; 6.1 m from heater, read-out: % Efficacy (Relative to Control)): 97.8% | Emax (fleas [1]; all distances from heater, read-out: % Efficacy (Relative to Control), Overall): 96.1% | Flea control, result in words (fleas [1]; all distances from the plug-in heater): excellent control at all distances | Number of Adult Fleas Emerging From 100 Eggs, Mean (Arithmetic), test samples (fleas [2]; 1 month after treatment): 2.8 | Number of Adult Fleas Emerging From 100 Eggs, Mean (Geometric), test samples (fleas [2]; 1 month after treatment): 2.7 | Number of Adult Fleas Emerging From 100 Eggs, individual test samples (fleas [2]; 1 month after treatment): 3 (2×) and 2 (3×) and 5 | Percent Control (Arithmetic) (fleas [2]; 1 month after treatment): 95.6% | Percent Control (Geometric) (fleas [2]; 1 month after treatment): 95.8% | Number of Adult Fleas Emerging From 100 Eggs, Mean (Arithmetic), test samples (fleas [2]; 2 months after treatment): 3.2 | Number of Adult Fleas Emerging From 100 Eggs, Mean (Geometric), test samples (fleas [2]; 2 months after treatment): 1.9 | Number of Adult Fleas Emerging From 100 Eggs, individual test samples (fleas [2]; 2 months after treatment): 5 and 2 (2×) and 0 and 4 and 6 | Percent Control (Arithmetic) (fleas [2]; 2 months after treatment): 95.5% | Percent Control (Geometric) (fleas [2]; 2 months after treatment): 97.3% | Number of Adult Fleas Emerging From 100 Eggs, Mean (Arithmetic), test samples (fleas [2]; 3 months after treatment): 3.7 | Number of Adult Fleas Emerging From 100 Eggs, Mean (Geometric), test samples (fleas [2]; 3 months after treatment): 0.7 | Number of Adult Fleas Emerging From 100 Eggs, individual test samples (fleas [2]; 3 months after treatment): 1 and 0 (3×) and 5 and 16 | Percent Control (Arithmetic) (fleas [2]; 3 months after treatment): 94.0% | Percent Control (Geometric) (fleas [2]; 3 months after treatment): 98.9% | Number of Adult Fleas Emerging From 100 Eggs, Mean (Arithmetic), test samples (fleas [2]; 4 months after treatment): 4.0 | Number of Adult Fleas Emerging From 100 Eggs, Mean (Geometric), test samples (fleas [2]; 4 months after treatment): 3.0 | Number of Adult Fleas Emerging From 100 Eggs, individual test samples (fleas [2]; 4 months after treatment): 1 (2×) and 8 and 4 (2×) and 6 | Percent Control (Arithmetic) (fleas [2]; 4 months after treatment): 94.3% | Percent Control (Geometric) (fleas [2]; 4 months after treatment): 95.7% | Flea control, result in words (fleas [2]; all cases, 1-4 months after treatment): excellent control was achieved in all cases | Persistence of the treatment (fleas [2]; carpet circles aged after exposure): persistent for up to four months | Efficacy Under 2-in. Overhead Barrier, Position 2 [3, 4]: Position 2: 96% | Efficacy Under 3-in. Overhead Barrier, Position 2 [3, 4]: Position 2: 100% | Efficacy Under 2-in. Overhead Barrier, Position 1 [3, 5]: Position 1: 99% | Efficacy Under 3-in. Overhead Barrier, Position 1 [3, 5]: Position 1: 100% | Efficacy at Indicated Distance from Source ([3]; 0.1 g, room 78.4 m^3, activation time 24 h, 0.61 m from source): 99% | Efficacy at Indicated Distance from Source, 35-Day Residual Effect ([3]; 0.1 g, room 78.4 m^3, activation time 24 h, 0.61 m): 96% | Efficacy at Indicated Distance from Source ([3]; 0.1 g, room 78.4 m^3, activation time 24 h, 3.0 m from source): 99% | Efficacy at Indicated Distance from Source, 35-Day Residual Effect ([3]; 0.1 g, room 78.4 m^3, activation time 24 h, 3.0 m): 96% | Efficacy at Indicated Distance from Source ([3]; 0.1 g, room 78.4 m^3, activation time 24 h, 6.1 m from source): 99% | Efficacy at Indicated Distance from Source, 35-Day Residual Effect ([3]; 0.1 g, room 78.4 m^3, activation time 24 h, 6.1 m): 97% | Efficacy at Indicated Distance from Source ([3]; 0.1 g, room 117.6 m^3, activation time 4 h, 0.61 m from source): 100% | Efficacy at Indicated Distance from Source ([3]; 0.1 g, room 117.6 m^3, activation time 4 h, 3.0 m from source): 99.4% | Efficacy at Indicated Distance from Source ([3]; 0.1 g, room 117.6 m^3, activation time 4 h, 6.1 m from source): 99.4% | Efficacy at Indicated Distance from Source ([3]; 0.1 g, room 186.8 m^3, activation time 4 h, 0.61 m from source): 100% | Efficacy at Indicated Distance from Source ([3]; 0.1 g, room 186.8 m^3, activation time 4 h, 3.0 m from source): 99.6% | Efficacy at Indicated Distance from Source ([3]; 0.1 g, room 186.8 m^3, activation time 4 h, 6.1 m from source): 100% | Efficacy at Indicated Distance from Source ([3]; 0.1 g, room 196 m^3, activation time 4 h, 0.61 m from source): 95% | Efficacy at Indicated Distance from Source ([3]; 0.1 g, room 196 m^3, activation time 4 h, 3.0 m from source): 97.3% | Efficacy at Indicated Distance from Source ([3]; 0.1 g, room 196 m^3, activation time 4 h, 6.1 m from source): 96.5% | Efficacy at Indicated Distance from Source ([3]; 1.8 g S-methoprene volatilized, room 78.4 m^3, activation time 120 h, 0.61 m from source): 100% | Efficacy at Indicated Distance from Source ([3]; 1.8 g S-methoprene volatilized, room 78.4 m^3, activation time 120 h, 3.0 m from source): 100% | Efficacy at Indicated Distance from Source ([3]; 1.8 g S-methoprene volatilized, room 78.4 m^3, activation time 120 h, 6.1 m from source): 100% | Flea control, result in words ([3]; all cases, including lower dosage rate, 35-day residual effect, overhead barrier): excellent control was achieved in all cases
